Results taken from the NIST ThermoML archive (doi:10.1021/acs.jced.6b00888).

Details: 101.3 kPa, Liquid, Vibrating tube method

CN(C)CCO [2-(N,N-dimethylamino)ethanol]
Details | mass density [kg/m3]
293.15 K | 888.2
298.15 K | 884
303.15 K | 879.8
308.15 K | 875.5
313.15 K | 871.2
318.15 K | 866.8
323.15 K | 862.4
328.15 K | 858
333.15 K | 853.5
338.15 K | 849
343.15 K | 844.4
